Source: US12594265B2, “Methods and compositions for inhibition of STAT3” (Ohio State Innovation Foundation, priority 2017, dated 2026)

Experiments:
[1] = test system: pSTAT3 in myelin-specific CD4 T cells; experiment: pSTAT3 levels in myelin-specific CD4 T cells (intracellular flow cytometry); type: cell-based, mice; details: 0.250 μM; MBP Ac1-11 and IL-6 activation
Procedure: Intracellular staining and flow cytometric analysis. Flow cytometric analysis was performed to evaluate the expression of surface markers and T-bet in CD4 T cells, as previously described (Yang, Weiner et al. 2009). Briefly, splenocytes were activated with antigen or αCD3/CD28 for 48 to 72 hours. Cells were then collected, washed, and resuspended in staining buffer (1% BSA in PBS). The cells were incubated with mAbs to the cell-surface markers for 30 min at 4° C. After washing twice with staining buffer, cells were fixed and permeabilized using Cytofix/Cytoperm solution for 20 min at 4° C. Cells were stained for intracellular cytokines and T-bet for 30 min at 4° C. 80,000-100,000 live cell events were acquired on a FACSCanto (BD) and analyzed using FlowJo software (Tree Star, Inc.). PerCP-anti-CD4, and Pacific Blue-anti-CD44 were purchased from BD. PE-anti-PD-1, PE-Cy7-anti-IL-7Rα and Pacific Blue-anti-T-bet were purchased from Biolegend Biotechnology, Inc.
LLL12b suppresses pSTAT3 expression and IL-17 production in myelin-specific CD4 T cells in a dose-dependent manner. LLL21b was further tested to assess suppression of pSTAT3 expression in myelin-specific CD4 T cells. FIGS. 7A-7B show representative data for the effect of a representative disclosed compound, LLL12b, on IL-17 production, pSTAT3 levels, and cell viability under various conditions. […]

[2] = test system: CD25+FoxP3+ iTregs of CD4 T cells from MS patients; experiment: iTreg development of CD4 T cells from MS patients (intracellular flow cytometry); type: cell-based, human
Procedure: FIGS. 14A-14M show representative data for LLL12b suppression of human Th17 development and promotion of Treg development in CD4 T-cells from MS patients. FIGS. 14A, 14E, 14H, and 14K each shown representative data obtained in PBMCs from 22 treatment-naïve MS patients that were activated with αhCD3 plus rhIL-6 for 3 days, in the presence of 0.125 μM or 0.25 μM of LLL12b. DMSO was used as a vehicle control. IL-17 in supernatant was determined by ELISA. FIGS. 14B-14C, 14F, 14I, and 14L each shown representative data obtained in PBMCs from 22 treatment-naïve MS patients that were activated with αhCD3/CD28 plus rhTGFβ. rhIL-2 and RA for 3 days, in the presence of 0.125 μM of LLL12b. DMSO was used as vehicle control. CD25+FoxP3+CD4+ iTregs were determined by intracellular flow cytometry. Cells were gated CD45RA+CD4+ cells. […] IL-17 in each group was compared with one-way ANOVA. […] FIG. 14G the calculated IL-17/Treg ratio of each patient in LLL12b group and DMSO group and compared with Wilcoxon matched-pairs signed rank test. […] FIG. 14J the calculated percent decrease of IL-17/Treg ratio in LLL12b group compared to DMSO group. […] FIG. 14M patient numbers in different ranges of calculated percent decrease of IL-17/Treg.
Meanwhile, we determined the extent to which LLL12b promotes the development of iTregs of CD4 T cells from MS patients (FIGS. 14B-14C, 14F, 14I, and 14L). PBMCs from 22 treatment-naïve MS patients were activated with αhCD3/CD28 for 3 days, in the presence of TGFβ, IL-2 and trans-retinoic acid (iTreg differentiating condition). After 72 h of culture under iTreg differentiating condition, the total number of CD25+FoxP3+ iTregs in the CD4+CD45RA+ population increased from 40% in control group to 59% in the group treated with LLL12b.

[3] = of 22 treatment-naïve MS patients, compared to DMSO

CN(C)C(=O)Oc1cccc2c1C(=O)c1cccc(S(N)(=O)=O)c1C2=O [LLL12b]
pSTAT3 expression [1]: notably suppresses pSTAT3 expression | iTreg development of CD4 T cells from MS patients ([2]; 0.125 μM, 22 treatment-naïve MS patients): significantly promotes iTreg development | patient numbers with % Increase of iTregs 5-20% [2, 3]: 13 | patient numbers with % Increase of iTregs 20-40% [2, 3]: 3 | patient numbers with % Increase of iTregs <5% [2, 3]: 5 | patient numbers with % Increase of iTregs >40% [2, 3]: 1 | CD25+FoxP3+ iTregs in the CD4+CD45RA+ population ([2]; one MS patient, 72 h, iTreg differentiating condition, control group 40%): 59%
